Measured values published in patent US11464749B2, “Bismuth-thiol compositions and methods of use” (Microbion Corporation, priority 2018, dated 2022).
Like-named read-outs stand apart in the source and are kept apart here.

What was measured:
[1] = test system: Escherichia coli; experiment: Broth microdilution MIC (Example 11)
[2] = test system: Klebsiella pneumoniae; experiment: Broth microdilution MIC (Example 11)
[3] = test system: Enterobacter cloacae; experiment: Broth microdilution MIC (Example 11); conditions: ATCCBAA2468
[4] = test system: Pseudomonas aeruginosa; experiment: Broth microdilution MIC (Example 11); conditions: Pseudomonas aeruginosa
[5] = test system: Acinetobacter baumannii; experiment: Broth microdilution MIC (Example 11); conditions: Acinetobacter baumannii
[6] = test system: E. faecalis; experiment: Broth microdilution MIC (Example 11); conditions: Enterococcus faecalis, VRE, VRE Lev^R Cip^R Ery^R
[7] = test system: S. pneumoniae; experiment: Broth microdilution MIC (Example 11); conditions: Streptococcus pneumoniae
[8] = test system: S. agalactiae; experiment: Broth microdilution MIC (Example 11); conditions: Streptococcus agalactiae
[9] = test system: Escherichia coli; experiment: Broth microdilution MIC (Example 12); conditions: Escherichia coli
[10] = test system: Klebsiella pneumoniae; experiment: Broth microdilution MIC (Example 12); conditions: Klebsiella pneumoniae
[11] = test system: Pseudomonas aeruginosa; experiment: Broth microdilution MIC (Example 12); conditions: Pseudomonas aeruginosa
[12] = test system: Acinetobacter baumannii; experiment: Broth microdilution MIC (Example 12); conditions: Acinetobacter baumannii
[13] = test system: Pseudomonas aeruginosa strain PA01; experiment: Bacterial killing curves with and without CF patient sputum; parameters: time to sterilization below the limit of detection: dose or concentration left out as unconfirmed

Compound: CC(S)C(C)S.[Bi] (centres unmarked) [BisBDT, bismuth-2,3-butanedithiol]
- MIC ([1]; ATCC25922, E. coli MMX 102 (ATCC 25922), QC): 0.5 µg/mL
- MIC ([1]; ATCCBAA2469, E. coli MMX 5980 (ATCC BAA-2469), NDM-1, Lev^R, MEM^R, CAZ^R, Gm^R): 1 µg/mL
- MIC ([1]; E. coli MMX 8423, ESBL, Lev^R, CAZ^R, Gm^R): 1 µg/mL
- MIC ([1]; E. coli MMX 8424, ESBL, CAZ^R): 0.5 µg/mL
- MIC ([1]; E. coli MMX 8425, ESBL, Lev^R, CAZ^R, Gm^R): 1 µg/mL
- MIC ([2]; K. pneumoniae MMX 4622, KPC-2, MEM^R, CAZ^R): 1 µg/mL
- MIC ([2]; K. pneumoniae MMX 4623, KPC-2, MEM^R, CAZ^R, GM^R): 0.5 µg/mL
- MIC ([2]; K. pneumoniae MMX 4653, KPC-3, Lev^R, MEM^R, CAZ^R): 2 µg/mL
- MIC ([2]; K. pneumoniae MMX 4683, KPC-2, Lev^R, MEM^R, CAZ^R): 1 µg/mL
- MIC ([2]; K. pneumoniae MMX 4684, ESBL, MEM^R): 2 µg/mL
- MIC ([2]; K. pneumoniae MMX 4685, ESBL, Lev^R, MEM^R, CAZ^R): 1 µg/mL
- MIC ([2]; K. pneumoniae MMX 4694, KPC-3, Lev^R, MEM^R, CAZ^R): 1 µg/mL
- MIC ([2]; K. pneumoniae MMX 5979, NDM-1, Lev^R, MEM^R, CAZ^R, Gm^R): 1 µg/mL
- MIC [3]: 2 µg/mL
- MIC ([4]; ATCC27853, P. aeruginosa MMX 103 (ATCC 27853), QC): 1 µg/mL
- MIC ([4]; P. aeruginosa MMX 1381, MDR, Lev^R, Cip^R, MEM^R, CAZ^R): 1 µg/mL
- MIC ([4]; P. aeruginosa MMX 2562, MDR, Lev^R, Cip^R, MEM^R, CAZ^R): 2 µg/mL
- MIC ([4]; P. aeruginosa MMX 3991, MDR, Lev^R, Cip^R, MEM^R, CAZ^R): 2 µg/mL
- MIC ([4]; P. aeruginosa MMX 4654, IMP-7, Lev^R, Cip^R, MEM^R, CAZ^R): 2 µg/mL
- MIC ([4]; P. aeruginosa MMX 4697, VIM-2, Lev^R, Cip^R, MEM^R, CAZ^R): 2 µg/mL
- MIC ([5]; A. baumannii MMX 2592, MDR, Lev^R, Cip^R, MEM^R, CAZ^R, Gm^R): 0.5 µg/mL
- MIC ([5]; A. baumannii MMX 2593, MDR, Lev^R, Cip^R, MEM^R, CAZ^R, Gm^R): 0.5 µg/mL
- MIC ([5]; A. baumannii MMX 3372, MDR, Cip^R, MEM^I, CAZ^I): 1 µg/mL
- MIC ([5]; A. baumannii MMX 3373, Sensitive): 0.5 µg/mL
- MIC ([5]; NCTC13304, A. baumannii MMX 4651 (NCTC 13304), MDR, OXA-27, Lev^R, Cip^R, MEM^R, CAZ^R, Gm^I): 0.5 µg/mL
- MIC ([6]; E. faecalis MMX 8960): 0.5 µg/mL
- MIC ([6]; E. faecalis MMX 8961): 0.25 µg/mL
- MIC ([6]; E. faecalis MMX 8962): 0.25 µg/mL
- MIC ([7]; ATCC49619, S. pneumoniae MMX 6837 (ATCC 49619), QC): 0.5 µg/mL
- MIC ([7]; S. pneumoniae MMX 880, Lev^R SXT^R CC^R Ery^R Pen^R): 0.5 µg/mL
- MIC ([7]; S. pneumoniae MMX 937, Mem^R SXT^R CC^R Ery^R Pen^R): 8 µg/mL
- MIC ([7]; S. pneumoniae MMX 3959, CC^R Ery^R): 1 µg/mL
- MIC ([7]; S. pneumoniae MMX 5440, Mem^R SXT^R CC^R Ery^R Pen^R): 0.5 µg/mL
- MIC ([7]; S. pneumoniae MMX 5445, Mem^R SXT^R CC^R Ery^R Pen^R): 0.5 µg/mL
- MIC ([7]; S. pneumoniae MMX 8133, Mem^R SXT^R CC^R Ery^R Pen^R): 0.5 µg/mL
- MIC ([7]; read-out: MIC values, pneumococci incl. multi-drug resistant): 0.5 to 8 µg/mL
- MIC ([8]; S. agalactiae MMX 3741, ERY^R CC^R): 0.25 µg/mL
- MIC ([8]; S. agalactiae MMX 3743, ERY^R CC^R): 0.25 µg/mL
- MIC ([8]; S. agalactiae MMX 4077, ERY^R CC^R): 0.25 µg/mL
- MIC ([8]; S. agalactiae MMX 4079, ERY^R CC^R Pen^R MEM^R): 0.5 µg/mL
- MIC ([8]; S. agalactiae MMX 4086, ERY^R CC^R): 0.25 µg/mL
- MIC ([9]; ATCC25922, E. coli ATCC 25922, QC organism): 1 µg/mL
- MIC ([9]; ATCC35218, E. coli ATCC 35218, ESBL): 1 µg/mL
- MIC ([9]; ATCC35218, E. coli ATCC 35218, QC organism (Table 102)): 1 µg/mL
- MIC ([9]; ATCCBAA2471, E. coli ATCC BAA-2471, NDM): 2 µg/mL
- MIC ([9]; E. coli CDC 114, ESBL/KPC): 2 µg/mL
- MIC ([9]; E. coli CDC 118, ESBL/NDM): 1 µg/mL
- MIC ([9]; E. coli CDC 435, NDM): 1 µg/mL
- MIC ([9]; E. coli CDC 451, KPC): 1 µg/mL
- MIC ([9]; E. coli CDC 503, ESBL/NDM): 2 µg/mL
- MIC ([9]; E. coli MMX 5745, KPC): 2 µg/mL
- MIC ([9]; E. coli MMX 5755, ESBL): 2 µg/mL
- MIC ([9]; E. coli MMX 5756, ESBL): 1 µg/mL
- MIC ([9]; E. coli MMX 5758, ESBL): 1 µg/mL
- MIC ([10]; ATCCBAA1705, K. pneumoniae ATCC BAA-1705, ESBL/KPC): 1 µg/mL
- MIC ([10]; ATCCBAA1705, K. pneumoniae ATCC BAA-1705, QC organism (Table 102)): 1 µg/mL
- MIC ([10]; K. pneumoniae CDC 112, KPC): 2 µg/mL
- MIC ([10]; K. pneumoniae CDC 113, ESBL/KPC): 1 µg/mL
- MIC ([10]; K. pneumoniae CDC 115, ESBL/KPC): 2 µg/mL
- MIC ([10]; K. pneumoniae CDC 120, ESBL/KPC): 2 µg/mL
- MIC ([10]; K. pneumoniae CDC 126, ESBL/KPC): 2 µg/mL
- MIC ([10]; K. pneumoniae CDC 129, ESBL/KPC): 4 µg/mL
- MIC ([10]; K. pneumoniae CDC 135, ESBL/VIM): 4 µg/mL
- MIC ([10]; K. pneumoniae CDC 138, ESBL/NDM): 2 µg/mL
- MIC ([10]; K. pneumoniae CDC 158, ESBL/NDM/OXA): 2 µg/mL
- MIC ([10]; K. pneumoniae MMX 9029, ESBL): 2 µg/mL
- MIC ([11]; ATCC27853, P. aeruginosa ATCC 27853, QC organism): 1 µg/mL
- MIC ([11]; P. aeruginosa CDC 230, VIM/OXA): 2 µg/mL
- MIC ([11]; P. aeruginosa CDC 231, KPC/OXA): 2 µg/mL
- MIC ([11]; P. aeruginosa CDC 241, IMP/OXA): 8 µg/mL
- MIC ([11]; P. aeruginosa CDC 246, NDM/OXA): 2 µg/mL
- MIC ([11]; P. aeruginosa CDC 250, NDM/OXA): 2 µg/mL
- MIC ([11]; P. aeruginosa CDC 356, KPC): 1 µg/mL
- MIC ([11]; P. aeruginosa CDC 439, IMP): 1 µg/mL
- MIC ([11]; P. aeruginosa CDC 444, VIM): 1 µg/mL
- MIC ([11]; P. aeruginosa CDC 457, VIM): 2 µg/mL
- MIC ([11]; P. aeruginosa CDC 516, KPC/AmpC): 1 µg/mL
- MIC ([11]; P. aeruginosa CDC 518, KPC/AmpC): 1 µg/mL
- MIC ([12]; A. baumannii CDC 273, ESBL/OXA): 0.5 µg/mL
- MIC ([12]; A. baumannii CDC 274, ESBL/OXA): 0.5 µg/mL
- MIC ([12]; A. baumannii CDC 275, ESBL/OXA): 0.5 µg/mL
- MIC ([12]; A. baumannii CDC 277, ESBL/OXA): 1 µg/mL
- MIC ([12]; A. baumannii CDC 284, ESBL/OXA): 1 µg/mL
- MIC ([12]; A. baumannii CDC 307, OXA): 0.5 µg/mL
- MIC ([12]; A. baumannii CDC 308, ESBL/OXA): 0.5 µg/mL
- MIC ([12]; A. baumannii CDC 311, OXA): 0.5 µg/mL
- MIC ([12]; A. baumannii CDC 312, OXA): 0.5 µg/mL
- MIC ([12]; A. baumannii CDC 313, ESBL/OXA): 0.5 µg/mL
- MIC ([12]; NCTC13304, A. baumannii NCTC 13304, OXA): 0.5 µg/mL
- bactericidal activity against PA01 ([13]; 0.1 μg/mL): not bactericidal
- effect of CF patient sputum on bactericidal activity ([13]; 10% CF patient sputum): partially inhibited
- time to sterilization below the limit of detection ([13]; with and without sputum): ≤ 5 h
